Read-outs that look alike come from different tables or passages of the source.
Biological target: hQC (Homo sapiens, UniProt Q16769)
Experiment: Inhibitor assay for glutaminyl cyclase activity (fluorometric, H-Gln-βNA / H-Gln-AMC)
Type: biochemical
Method in brief: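 Coupled fluorometric assay at 30 °C with pyroglutamyl aminopeptidase, in Tris/HCl pH 8.0 with EDTA, substrate H-Gln-βNA (0.2 mM; ex/em 320/410 nm) or H-Gln-AMC (ex/em 380/460 nm), initiated by QC. Screening: 4 mM inhibitor, substrate at 1 KM; Ki from progress curves fitted to competitive inhibition.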

[1] = compound from preparative synthesis, purified, read-out: IC50 hQC

Sequence of hQC (Q16769 29-361): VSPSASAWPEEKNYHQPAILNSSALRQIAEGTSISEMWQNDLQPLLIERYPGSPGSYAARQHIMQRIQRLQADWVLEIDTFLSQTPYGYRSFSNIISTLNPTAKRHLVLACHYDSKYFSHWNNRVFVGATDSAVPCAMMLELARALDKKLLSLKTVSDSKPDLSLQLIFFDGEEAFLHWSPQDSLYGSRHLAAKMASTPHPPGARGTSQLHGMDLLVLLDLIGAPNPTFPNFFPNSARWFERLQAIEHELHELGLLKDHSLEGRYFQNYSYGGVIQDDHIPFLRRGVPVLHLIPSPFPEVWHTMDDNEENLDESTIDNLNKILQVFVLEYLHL

Compound | IC50 (read-out: IC50) [µM] | IC50 [1] [µM] | Ki (compound from preparative synthesis, purified) [µM]
CCC1=C(O)C(=O)N(c2ccc3[nH]cnc3c2)C1c1c(F)ccc(Cl)c1F (centres unmarked) [Compound 290, 1-(1H-Benzoimidazol-5-yl)-5-(3-chloro-2,6-difluoro-phenyl)-4-ethyl-3-hydroxy-1,5-dihydro-pyrrol-2-one] | 3.82 |  | 
CC1=C(O)C(=O)N(CCCn2ccnc2)C1c1ccco1 (centres unmarked) [Compound 47, 5-(Furan-2-yl-)3-hydroxy-1-(3-imidazol-1-yl-propyl)-4-methyl-1,5-dihydro-pyrrol-2-one] | 0.4 |  | 
Cc1ccc(C2C(C(=O)c3ccc(Cl)cc3)=C(O)C(=O)N2c2ccc3[nH]cnc3c2)o1 (centres unmarked) [Compound 459, 1-(1H-Benzoimidazol-5-yl)-4-(4-chloro-benzoyl)-3-hydroxy-5-(5-methyl-furan-2-yl)-1,5-dihydro-pyrrol-2-one] | 2.11 |  | 
CC1=C(O)C(=O)N(CCCn2ccnc2)C1c1c(O)ccc2ccccc12 (centres unmarked) [Compound 42, 3-Hydroxy-5-(2-hydroxy-naphthalen-1-yl)-1-(3-imidazol-1-yl-propyl)-4-methyl-1,5-dihydro-pyrrol-2-one] | 2.2 |  | 
Cc1ccc(C2C(c3c[nH]c4ccccc34)=C(O)C(=O)N2CCCn2ccnc2)cc1C (centres unmarked) [Compound 123, 5-(3,4-Dimethyl-phenyl)-3-hydroxy-1-(3-imidazol-1-yl-propyl)-4-(1H-indol-3-yl)-1,5-dihydro-pyrrol-2-one] | 0.04 | 0.562 | 
CC(C)C1=C(O)C(=O)N(CCCn2ccnc2)C1c1ccccc1O (centres unmarked) [Compound 60, 3-Hydroxy-5-(2-hydroxy-phenyl)-1-(3-imidazol-1-yl-propyl)-4-isopropyl-1,5-dihydro-pyrrol-2-one] | 9.4 |  | 
CC(C)/C=C/C1C(c2c[nH]c3ccccc23)=C(O)C(=O)N1CCCn1ccnc1 (centres unmarked) [Compound 118, 3-Hydroxy-1-(3-imidazol-1-yl-propyl)-4-(1H-indol-3-yl)-5-(3-methyl-but-1-enyl)-1,5-dihydro-pyrrol-2-one] | 1.3 |  | 
O=C1C(O)=C(c2c[nH]c3ccccc23)C(c2ccc(CO)o2)N1c1ccc2[nH]cnc2c1 (centres unmarked) [Compound 409, 1-(1H-Benzoimidazol-5-yl)-3-hydroxy-5-(5-hydroxymethyl-furan-2-yl)-4-(1H-indol-3-yl)-1,5-dihydro-pyrrol-2-one] | 0.67 |  | 
CC1=C(O)C(=O)N(CCCn2ccnc2)C1c1ncc[nH]1 (centres unmarked) [Compound 40, 3-Hydroxy-5-(1H-imidazol-2-yl)-1-(3-imidazol-1-yl-propyl)-4-methyl-1,5-dihydro-pyrrol-2-one] | 2.2 |  | 
Cc1ccc(O)c(C2C(c3ccc(O)cc3)=C(O)C(=O)N2c2ccc3[nH]cnc3c2)c1 (centres unmarked) [Compound 284, 1-(1H-Benzoimidazol-5-yl)-3-hydroxy-5-(2-hydroxy-5-methyl-phenyl)-4-(4-hydroxy-phenyl)-1,5-dihydro-pyrrol-2-one] | 7.15 |  | 
O=C1C(O)=C(c2ccc(O)cc2)C(c2cccc(F)c2)N1c1ccc2[nH]cnc2c1 (centres unmarked) [Compound 363, 1-(1H-Benzoimidazol-5-yl)-5-(3-fluoro-phenyl)-3-hydroxy-4-(4-hydroxy-phenyl)-1,5-dihydro-pyrrol-2-one] | 0.67 |  | 
O=C1C(O)=C(c2ccc(O)cc2)C(C2CCC=CO2)N1CCCn1ccnc1 (centres unmarked) [Compound 163, 5-(3,4-Dihydro-2H-pyran-2-yl)-3-hydroxy-4-(4-hydroxy-phenyl)-1-(3-imidazol-1-yl-propyl)-1,5-dihydro-pyrrol-2-one] | 0.04 | 0.559 | 
Cc1ccc2occ(C3C(c4c[nH]c5ccccc45)=C(O)C(=O)N3c3ccc4[nH]cnc4c3)c(=O)c2c1 (centres unmarked) [Compound 346, 1-(1H-Benzoimidazol-5-yl)-3-hydroxy-4-(1H-indol-3-yl)-5-(6-methyl-4-oxo-4H-chromen-3-yl)-1,5-dihydro-pyrrol-2-one] | 4.99 |  | 
Cc1ccc(C2C(C(=O)CC(C)C)=C(O)C(=O)N2c2ccc3[nH]cnc3c2)o1 (centres unmarked) [Compound 289, 1-(1H-Benzoimidazol-5-yl)-3-hydroxy-4-(3-methyl-butyryl)-5-(5-methyl-furan-2-yl)-1,5-dihydro-pyrrol-2-one] | 0.76 |  | 
O=C1C(O)=C(c2ccccc2)C(C(F)(F)F)N1CCCn1ccnc1 (centres unmarked) [Compound 96, 3-Hydroxy-1-(3-imidazol-1-yl-propyl)-4-phenyl-5-trifluoromethyl-1,5-dihydro-pyrrol-2-one] | 0.4 |  | 
CC1=C(O)C(=O)N(CCCn2ccnc2)C1c1ccccn1 (centres unmarked) [Compound 43, 3-Hydroxy-1-(3-imidazol-1-yl-propyl)-4-methyl-5-pyridin-2-yl-1,5-dihydro-pyrrol-2-one] | 2.2 |  | 
Cc1cccc(C2C(c3ccc(O)cc3)=C(O)C(=O)N2c2ccc3[nH]cnc3c2)c1 (centres unmarked) [Compound 429, 1-(1H-Benzoimidazol-5-yl)-3-hydroxy-4-(4-hydroxy-phenyl)-5-m-tolyl-1,5-dihydro-pyrrol-2-one] | 1.39 |  | 
O=C1C(O)=C(c2ccccc2)C(c2ncc[nH]2)N1CCCn1ccnc1 (centres unmarked) [Compound 98, 3-Hydroxy-5-(1H-imidazol-2-yl)-1-(3-imidazol-1-yl-propyl)-4-phenyl-1,5-dihydro-pyrrol-2-one] | 1.3 |  | 

Compound | IC50 (read-out: IC50) [µM] | IC50 [1] [µM] | Ki (compound from preparative synthesis, purified) [µM]
COc1ccc(C2C(c3ccc(O)cc3)=C(O)C(=O)N2CCCn2ccnc2)cc1 (centres unmarked) [Compound 156, 3-Hydroxy-4-(4-hydroxy-phenyl)-1-(3-imidazol-1-yl-propyl)-5-(4-methoxy-phenyl)-1,5-dihydro-pyrrol-2-one] | 0.04 | 0.088 | 
CC1=C(O)C(=O)N(c2ccc3[nH]cnc3c2)C1c1ccc2nsnc2c1 (centres unmarked) [Compound 380, 1-(1H-Benzoimidazol-5-yl)-5-benzo[c][1,2,5]thiadiazol-5-yl-3-hydroxy-4-methyl-1,5-dihydro-pyrrol-2-one] | 1.03 |  | 
O=C1C(O)=C(c2ccc(O)cc2)C(c2cccc(Cl)c2)N1CCCn1ccnc1 (centres unmarked) [Compound 179, 5-(3-Chloro-phenyl)-3-hydroxy-4-(4-hydroxy-phenyl)-1-(3-imidazol-1-yl-propyl)-1,5-dihydro-pyrrol-2-one] | 0.04 |  | 
CC(C)C1=C(O)C(=O)N(c2ccc3[nH]cnc3c2)C1c1csc2ccccc12 (centres unmarked) [Compound 275, 5-Benzo[b]thiophen-3-yl-1-(1H-benzoimidazol-5-yl)-3-hydroxy-4-isopropyl-1,5-dihydro-pyrrol-2-one] | 6.07 |  | 
CCC/C=C/C1C(CCCCC)=C(O)C(=O)N1CCCn1ccnc1 (centres unmarked) [Compound 185, 3-Hydroxy-1-(3-imidazol-1-yl-propyl)-5-(pent-1-enyl)-4-pentyl-1,5-dihydro-pyrrol-2-one] | 1.3 |  | 
COc1ccc(C2C(c3ccccc3)=C(O)C(=O)N2CCCn2ccnc2)cc1 (centres unmarked) [Compound 86, 3-Hydroxy-1-(3-imidazol-1-yl-propyl)-5-(4-methoxy-phenyl)-4-phenyl-1,5-dihydro-pyrrol-2-one] | 0.04 | 1.23 | 
O=C1C(O)=C(c2cccc(O)c2)C(c2ccc3cccc(O)c3n2)N1c1ccc2[nH]cnc2c1 (centres unmarked) [Compound 304, 1-(1H-Benzoimidazol-5-yl)-3-hydroxy-4-(3-hydroxy-phenyl)-5-(8-hydroxy-quinolin-2-yl)-1,5-dihydro-pyrrol-2-one] | 0.22 |  | 
CC1=C(O)C(=O)N(c2ccc3[nH]cnc3c2)C1c1ccnc2ccccc12 (centres unmarked) [Compound 270, 1-(1H-Benzoimidazol-5-yl)-3-hydroxy-4-methyl-5-quinolin-4-yl-1,5-dihydro-pyrrol-2-one] | 1.48 |  | 
CCCCCC1=C(O)C(=O)N(CCCn2ccnc2)C1CC (centres unmarked) [Compound 215, 5-Ethyl-3-hydroxy-1-(3-imidazol-1-yl-propyl)-4-pentyl-1,5-dihydro-pyrrol-2-one] | 1.3 |  | 
CC1=C(O)C(=O)N(c2ccc3[nH]cnc3c2)C1c1cc(Cl)ccc1O (centres unmarked) [Compound 337, 1-(1H-Benzoimidazol-5-yl)-5-(5-chloro-2-hydroxy-phenyl)-3-hydroxy-4-methyl-1,5-dihydro-pyrrol-2-one] | 5.8 |  | 
CCCC(=O)C1=C(O)C(=O)N(c2ccc3[nH]cnc3c2)C1c1ccco1 (centres unmarked) [Compound 353, 1-(1H-Benzoimidazol-5-yl)-4-butyryl-5-furan-2-yl-3-hydroxy-1,5-dihydro-pyrrol-2-one] | 2.74 |  | 
CC(C)C1=C(O)C(=O)N(CCCn2ccnc2)C1C1=CCCCC1 (centres unmarked) [Compound 67, 5-Cyclohex-1-enyl-3-hydroxy-1-(3-imidazol-1-yl-propyl)-4-isopropyl-1,5-dihydro-pyrrol-2-one] | 2.2 |  | 
CCCCCC1=C(O)C(=O)N(CCCn2ccnc2)C1c1c[nH]c2ccccc12 (centres unmarked) [Compound 204, 3-Hydroxy-1-(3-imidazol-1-yl-propyl)-5-(1H-indol-3-yl)-4-pentyl-1,5-dihydro-pyrrol-2-one] | 0.04 |  | 
CC1=C(O)C(=O)N(c2ccc3nc[nH]c3c2)C1c1c(F)cccc1F (centres unmarked) [Compound 473, 1-(1H-benzo[d]imidazol-6-yl)-5-(2,6-difluorophenyl)-3-hydroxy-4-methyl-1H-pyrrol-2(5H)-one] | 0.259 |  | 0.0292
O=C1C(O)=C(c2c[nH]c3ccccc23)C(c2ccc(O)c(Br)c2)N1c1ccc2[nH]cnc2c1 (centres unmarked) [Compound 438, 1-(1H-Benzoimidazol-5-yl)-5-(3-bromo-4-hydroxy-phenyl)-3-hydroxy-4-(1H-indol-3-yl)-1,5-dihydro-pyrrol-2-one] | 0.58 |  | 
CC(C)C1=C(O)C(=O)N(c2ccc3[nH]cnc3c2)C1C1COC(C)(C)O1 (centres unmarked) [Compound 300, 1-(1H-Benzoimidazol-5-yl)-5-(2,2-dimethyl-[1,3]dioxolan-4-yl)-3-hydroxy-4-isopropyl-1,5-dihydro-pyrrol-2-one] | 0.004 |  | 
CCCCCC1=C(O)C(=O)N(c2ccc3[nH]cnc3c2)C1c1ccco1 (centres unmarked) [Compound 456, 1-(1H-Benzoimidazol-5-yl)-5-furan-2-yl-3-hydroxy-4-pentyl-1,5-dihydro-pyrrol-2-one] | 4.63 |  | 
O=C1C(O)=C(c2cccc(O)c2)C(c2ccc(CO)o2)N1CCCn1ccnc1 (centres unmarked) [Compound 17, 3-Hydroxy-5-(5-hydroxymethyl-furan-2-yl)-4-(3-hydroxy-phenyl)-1-(3-imidazol-1-yl-propyl)-1,5-dihydro-pyrrol-2-one] | 5.8 |  | 

Source: patent publication US8278345B2, “Inhibitors of glutaminyl cyclase” (Probiodrug AG, priority 2006, dated 2012)
